# Test system: adjuvant-associated biological themes in LV, SP, LN
# How it was run: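 Per-mouse whole-organ transcriptomes; genes with eij/ei(c)>2.0 tested for theme enrichment via TargetMine (GO, KEGG, Reactome, others), Fisher's exact test, Holm-Bonferroni correction. Themes shared by all three mice kept at p<0.05, using the smallest p. Score per adjuvant-associated term = Σ−log(p) of matching themes.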
substance,measurement,setting,value
heptanoyl-γ-D-glutamyl-(L)-meso-diaminopimelyl-(D)-alanine [FK565],"cytokine, GO annotation line 8 of 17","LV, ID",16.2
same,"cytokine, GO annotation line 9 of 17","LV, ID",17
same,"cytokine, GO annotation line 10 of 17","LV, ID",18.6
same,"cytokine, GO annotation line 11 of 17","LV, ID",3.46
same,"cytokine, GO annotation line 12 of 17","LV, ID",14
same,"cytokine, GO annotation line 13 of 17","LV, ID",7.57
same,"cytokine, GO annotation line 14 of 17","LV, ID",7.13
same,"cytokine, GO annotation line 15 of 17","LV, ID",10.1
same,"cytokine, GO annotation line 16 of 17","LV, ID",0
same,"cytokine, GO annotation line 17 of 17","LV, ID",0
same,"defense response, GO annotation line 1 of 11","LV, ID",57.8
same,"defense response, GO annotation line 2 of 11","LV, ID",29.6
same,"defense response, GO annotation line 3 of 11","LV, ID",24.9
same,"defense response, GO annotation line 4 of 11","LV, ID",18.4
same,"defense response, GO annotation line 5 of 11","LV, ID",5.98
same,"defense response, GO annotation line 6 of 11","LV, ID",6.22
same,"defense response, GO annotation line 7 of 11","LV, ID",0
same,"defense response, GO annotation line 8 of 11","LV, ID",0
same,"defense response, GO annotation line 9 of 11","LV, ID",0
same,"defense response, GO annotation line 10 of 11","LV, ID",0
same,"defense response, GO annotation line 11 of 11","LV, ID",0
same,"immune response, GO annotation line 1 of 8","LV, ID",46.1
same,"immune response, GO annotation line 2 of 8","LV, ID",20.8
same,"immune response, GO annotation line 3 of 8","LV, ID",19.5
same,"immune response, GO annotation line 4 of 8","LV, ID",11.9
same,"immune response, GO annotation line 5 of 8","LV, ID",9.97
same,"immune response, GO annotation line 6 of 8","LV, ID",12.1
same,"immune response, GO annotation line 7 of 8","LV, ID",0
same,"immune response, GO annotation line 8 of 8","LV, ID",0
same,"inflammatory response, GO annotation line 1 of 5","LV, ID",29.8
same,"inflammatory response, GO annotation line 2 of 5","LV, ID",11.4
same,"inflammatory response, GO annotation line 3 of 5","LV, ID",3.69
same,"inflammatory response, GO annotation line 4 of 5","LV, ID",0
same,"inflammatory response, GO annotation line 5 of 5","LV, ID",0
same,"innate immune response, GO annotation line 1 of 6","LV, ID",33.7
same,"innate immune response, GO annotation line 2 of 6","LV, ID",19.7
same,"innate immune response, GO annotation line 3 of 6","LV, ID",16.7
same,"innate immune response, GO annotation line 4 of 6","LV, ID",16.2
same,"innate immune response, GO annotation line 5 of 6","LV, ID",14.3
same,"innate immune response, GO annotation line 6 of 6","LV, ID",0
same,interleukin-6: interleukin-6 production,"LV, ID",3.6
same,interleukin-6: positive regulation of interleukin-6 production,"LV, ID",0
same,interleukin-6: regulation of interleukin-6 production,"LV, ID",4.17
same,interleukin-12: interleukin-12 production,"LV, ID",8.76
same,interleukin-12: positive regulation of interleukin-12 production,"LV, ID",3.24
same,interleukin-12: regulation of interleukin-12 production,"LV, ID",9.49
same,"migration, GO annotation line 1 of 10","LV, ID",13.6
same,"migration, GO annotation line 2 of 10","LV, ID",8.98
same,"migration, GO annotation line 3 of 10","LV, ID",14.2
same,"migration, GO annotation line 4 of 10","LV, ID",7.86
same,"migration, GO annotation line 5 of 10","LV, ID",7.57
same,"migration, GO annotation line 6 of 10","LV, ID",6.55
same,"migration, GO annotation line 7 of 10","LV, ID",6.19
same,"migration, GO annotation line 8 of 10","LV, ID",4.49
same,"migration, GO annotation line 9 of 10","LV, ID",0
same,"migration, GO annotation line 10 of 10","LV, ID",0
same,"stress, GO annotation line 1 of 3","LV, ID",57.7
same,"stress, GO annotation line 2 of 3","LV, ID",28.5
same,"stress, GO annotation line 3 of 3","LV, ID",9.02
same,"wounding, GO annotation line 1 of 3","LV, ID",12.1
same,"wounding, GO annotation line 2 of 3","LV, ID",12.8
same,"wounding, GO annotation line 3 of 3","LV, ID",9.45
same,"NF-kappa B signaling pathway, GO annotation line 2 of 4","mouse, in vivo",12.9
same,"chemotaxis, GO annotation line 3 of 11","mouse, in vivo",15.7

# Source: patent US20230021483A1, “[…] […] METHOD AND CLASSIFICATION OF PHARMACEUTICAL COMPONENTS BY USING TRANSCRIPTOMES” (National Institutes of Biomedical Innovation, Health and …, priority 2016, published 2023)
